Marks after values point to notes of the source that are not given here.

Data on two molecules can be found in patent US20220265683A1, “HALOGENATED SALICYLANILIDES FOR THE TREATMENT OF DERMATITIS” (priority 2018, published 2022).

In assay [1] the test system is biomarkers in lesional AD skin. The conditions noted are these: 4 weeks, qRT-PCR; cited from earlier work. Background: Quantitative PCR measures a nucleic acid by following its amplification.
Assay [2] has as its system skin barrier and inflammation biomarkers in lesional skin biopsies. Put plainly: Biomarker gene expression in lesional skin biopsies by qRT-PCR (TLDA), Example 3. It counts as in vivo, human. The conditions noted are these: only responder population, 3 weeks. The protocol: (§1) Patients received topical applications of a niclosamide 2% composition and vehicle once daily for 3 weeks, followed by a 1-week follow up period. Topical niclosamide 2% and vehicle was applied on two separate target lesions of atopic dermatitis (lesions of at least 3×3-cm that are at least 2 cm apart, excluding the face, scalp, genitals, hands, and feet). The application areas (5×5-cm) were randomized (1:1) to once daily application of niclosamide 2% or vehicle at 5 mg/cm^2 without occlusion 6 days per week. Patients came to the study site for all study product application for a total of 3 weeks.
(§2) Three skin biopsies were collected in all patients (one from lesional skin at baseline, pre-dosing at Day 1, and two from lesional skin at Day 22 (one where topical niclosamide 2% had been applied and one where the vehicle had been applied). The lesional skin biopsies were analysed for skin thickness and inflammation biomarkers.
Skin barrier and inflammation biomarker levels were determined from lesional skin biopsies from application areas.
(§3) The skin biopsy samples were analysed by immunohistochemistry (IHC), and by gene expression studies by RT-PCR using TaqMan Low Density Array (TLDA), and by microarray using Affymetrix U133A Plus 2. The immunohistochemistry (IHC) was used to analyse cell biomarkers. The methodologies as disclosed by Guttman-Yassky et al, “Major differences in inflammatory dendritic cells and their products distinguish atopic dermatitis from psoriasis”, The Journal of Allergy and Clinical Immunology, vol. 119, issue 5, pages 1210-1217, 2007, were followed except for that U133A Plus 2-set Gene Chip probe arrays was used instead of U95A-set Gene Chip probe arrays.
Expression values (threshold cycle [Ct]) were normalized to Rplp0 by negatively transforming the Ct values to −dCt (IL17A was normalized to hARP, as analysed by qPCR). The undetected −dCt values were estimated for each gene as the 20% of the minimum across all samples. qRT-PCR expression data were modelled using a mixed effect model with Visit and Treatment Area as a fixed effect and a random intercept for each patient. This formulation intrinsically models the within patient correlation structure as in the case of a paired t-test. This approach introduces less bias than restricting the analysis for those patients who completed the study. Contrasts were used to estimate the fold changes with treatment within each treatment group and conduct hypothesis testing.

The test system is the same in assay [3]. The assay is described as follows: Biomarker gene expression in lesional skin biopsies by microarray (Affymetrix U133A Plus 2), Example 3. Format: in vivo, human. The protocol: as §1, §2, §3
Experimental design: The hybridization strategy was in concordance with experimental design principles, by for example keeping all samples from the same patient in the same date, and always include samples from every treatment arm/group.
Quality Control and Pre-processing: Quality control of microarray chips were carried out using standard QC metrics and R package microarray Quality Control. Expression measures were obtained using GCRMA algorithm (Wu & Irizarry, 2004). Several visual and modelling techniques were used to elucidate if batch effect existed. Principal Component analysis plots were used to detect if any evident batch effect existed. If such batch effects were found, they were adjusted using Combat, an empirical Bayes method for adjusting data for batch effects that is robust to outliers in small sample sizes (Johnson, Li, & Rabinovic, 2007). The implementation of Combat by package sva was used.
Probe-sets with at least 5% samples with expression larger than 3 (in log 2-scale) were kept for further analysis. Expression values were modelled using mixed-effect models with fixed factors Visit and Treatment Area and a random effect for each patient. Fold changes for the comparisons of interest were estimated and hypothesis testing was conducted on such comparisons using contrasts under the general framework for linear models in limma package. The inter-replicate correlation was computed by Duplicate Correlation function and the linear model was estimated by ImFit. P-values from the moderated (paired) t-test were adjusted for multiple hypotheses using the Benjamini-Hochberg procedure, which controls for FDR.

Assay [4] deals with CD3, langerin, CD11c and FceR1 cells in skin biopsies. The assay is described as follows: Immunohistochemistry (IHC) of cell markers in lesional skin biopsies, Example 3. Format: in vivo, human. The conditions noted are these: Day 22, 2% topical. The protocol:
as §2, §3

Another assay has as its system dendritic cells. The conditions noted are these: in-vitro; cited from earlier work.
The mark [5] stands for this setting: microarray fold change, Day 22, sign as niclosamide vs vehicle.
Where [6] appears, read: only responder population, 3 weeks, Microarray.

“Dupilumab: inhibits interleukin-4 and interleukin-13 signalling by binding to interleukin-4 receptor α”: in assay [1], the “CCL17, Dupilumab 300 mg vs. predose” value is on record as −9.2^b; the “CCL18, Dupilumab 300 mg vs. predose” value is −7.6^c; the “CCL22, Dupilumab 300 mg vs. predose” value is on record as −2.1^d; the “CCL26, Dupilumab 300 mg vs. predose” value is −6.3^c. In addition, in assay [1], the “K16/KRT16, Dupilumab 300 mg vs. predose” value was −10.7^b; the “MMP12, Dupilumab 300 mg vs. predose” value is reported as −14^b; the “S100A8, Dupilumab 300 mg vs. predose” value was −3^d; the “S100A12, Dupilumab 300 mg vs. predose” value is reported as −10.4^b.
Consider `O=C(Nc1ccc([N+](=O)[O-])cc1Cl)c1cc(Cl)ccc1O` [Niclosamide, niclosamide], for which, in assay [2], the “CCL17, Niclosamide 2% qd vs. predose” value is reported as −3.42^d; the “CCL18, Niclosamide 2% qd vs. predose” value is recorded as −3.46^d; the “CCL20, Niclosamide 2% qd vs. predose” value is given as −2^d; the “CCL22, Niclosamide 2% qd vs. predose” value is reported as −2.56^d. Further, in assay [2], the “CXCL1, Niclosamide 2% qd vs. predose” value is −3.82^d; the “CXCL2, Niclosamide 2% qd vs. predose” value is listed as −2.11^d; the “CXCL10, Niclosamide 2% qd vs. predose” value is recorded as −1.96^d; the “DEFB4B, Niclosamide 2% qd vs. predose” value was −7.18^c. Also, in assay [2], the “FLG, Niclosamide 2% qd vs. predose” value is recorded as 2.06^e; the “IL5, Niclosamide 2% qd vs. predose” value was −3.69^d; the “IL10, Niclosamide 2% qd vs. predose” value is −2.16^d; the “IL13, Niclosamide 2% qd vs. predose” value is recorded as −3.18^d. Moreover, in assay [2], the “IL17A, Niclosamide 2% qd vs. predose” value was −3.12^d; the “IL17C, Niclosamide 2% qd vs. predose” value is on record as −3.91^d; the “IL19, Niclosamide 2% qd vs. predose” value is reported as −6.65^c; the “K16/KRT16, Niclosamide 2% qd vs. predose” value is recorded as −8.46^c. In assay [2], the “LOR, Niclosamide 2% qd vs. predose” value is reported as 2.84^f; the “MMP12, Niclosamide 2% qd vs. predose” value was −5.12^c; the “PI3, Niclosamide 2% qd vs. predose” value is −11.2^b; the “S100A12, Niclosamide 2% qd vs. predose” value is on record as −10.5^b. Further, in assay [3] (setting [5]), the “CXCL1, 2% niclosamide compared to vehicle” value is −2.10 and the “S100A12, 2% niclosamide compared to vehicle” value was −2.30. For the same molecule, in assay [3] (setting [6]), the “CD3d, Niclosamide 2% qd vs. predose” value is −2.2^d; the “IL4R, Niclosamide 2% qd vs. predose” value was −2.19^d; the “IL15, Niclosamide 2% qd vs. predose” value is recorded as −1.59^d; the “IL22, Niclosamide 2% qd vs. predose” value is reported as −2.1^d. Also, in assay [3] (setting [6]), the “JAK3, Niclosamide 2% qd vs. predose” value is given as −1.86^d; the “S100A8, Niclosamide 2% qd vs. predose” value is −1.82^d; the “S100A9, Niclosamide 2% qd vs. predose” value was −5.15^d; the “STAT3, Niclosamide 2% qd vs. predose” value is on record as −1.54^d. Also, in assay [4], the “inflammatory cells (dendritic cells: CD11c, FceR1 in epidermis; Langerhans cells: langerin/CD207) compared to baseline” value is recorded as “Significant reductions in inflammatory cells”; the “total amount of T cells (dermis and epidermis) compared to baseline” value is listed as “No significant change”. The “LPS-induced dendritic cell maturation, cytokine, costimulatory and MHC molecule expression” value with dendritic cells is recorded as “inhibitory action”.
